Laboratory results: patent US11633411B2, “Methods of treating sepsis using anti-sepsis lipid A (ASLA) based therapeutics” (UNIVERSITY OF MARYLAND, BALTIMORE, priority 2016, dated 2023)

What was measured:
[1] = system: C57BL6 mice; assay: Lethal endotoxic shock mouse model (25 mg/kg E. coli W3110 LPS i.p.); type: in vivo; conditions: for survival rate: preliminary experiment; for survival: repeat experiment
Protocol: FIG. 4. ALSA 468 therapeutically rescues mice from lethal endotoxic shock. Lethal endotoxic shock was induced in 6-8 week old C57BL6 mice by injecting 25 mg/kg of E. coli LPS (strain W3110) i.p. […]
To determine if ASLA 468 is capable of therapeutically rescuing mice that have received a lethal dose of pro-inflammatory Ec LPS, an in vivo mouse model of lethal endotoxin septic shock was used. Medzhitov, R. Nat. Rev. Immunol. 2001, 1, 135-145; Remick et al., Shock 2000, 13, 110. […] These pilot experiments provide a proof-of-principle that molecules found to compete with pro-inflammatory LPS in vitro are also capable of combating symptoms of septic shock in vivo. Future sepsis models to be used in this proposal will account for bacterial clearance after antibiotic treatment, in vivo location and concentration of LPS, and the structural relationship between ASLA and MD2/TLR4 complex that will address some shortcomings of previous anti-sepsis therapeutics, which is the scientific premise of this proposal. Raetz et al., Annu. Rev. Biochem. 2002, 71, 635-700; Raetz et al., J. Lipid Res. 2009, 50 Suppl, S103-108; Needham et al., S. Nature Reviews Microbiology 2013, 11, 467-481; Ernst et al., Science 1999, 286, 1561-1565; Miller et al., Nature Reviews Microbiology 2005, 3, 36-46; Siegemund et al., Nat Immunol 2012, 13, 1031-1033; Rietschel et al., FASEB J. 1994, 8, 217-225; van Lieshout et al., Inflamm. Res. 2014, 63, 927-933; Buras et al., Nat Rev Drug Discov 2005, 4, 854-865.
Experimental Setup: Similarly to the non-lethal endotoxic shock model, in this in vivo model of lethal septic shock 6-week old C57BL6 mice were injected intraperitoneally with either 25 mg/kg E. coli (W3110) LPS, co-administered 25 mg/kg Ec LPS+10 mg/kg BECC468@26, or 25 mg/kg Ec LPS followed by 10 mg/kg BECC468@26 four hours later. Mice were monitored for survival every 12 hours post-injection. n=6 mice for each group, percent survival for each group is graphed.

[2] = molecular target: T1, TLR4 (Homo sapiens, UniProt O00206+Q9Y6Y9); assay: NF-κB activation screen in THP-1 Dual reporter cells (SEAP under NFκB promoter); type: cell-based; set-up: host or cells: THP-1 Dual reporter cells
T1 sequence (O00206 24-839): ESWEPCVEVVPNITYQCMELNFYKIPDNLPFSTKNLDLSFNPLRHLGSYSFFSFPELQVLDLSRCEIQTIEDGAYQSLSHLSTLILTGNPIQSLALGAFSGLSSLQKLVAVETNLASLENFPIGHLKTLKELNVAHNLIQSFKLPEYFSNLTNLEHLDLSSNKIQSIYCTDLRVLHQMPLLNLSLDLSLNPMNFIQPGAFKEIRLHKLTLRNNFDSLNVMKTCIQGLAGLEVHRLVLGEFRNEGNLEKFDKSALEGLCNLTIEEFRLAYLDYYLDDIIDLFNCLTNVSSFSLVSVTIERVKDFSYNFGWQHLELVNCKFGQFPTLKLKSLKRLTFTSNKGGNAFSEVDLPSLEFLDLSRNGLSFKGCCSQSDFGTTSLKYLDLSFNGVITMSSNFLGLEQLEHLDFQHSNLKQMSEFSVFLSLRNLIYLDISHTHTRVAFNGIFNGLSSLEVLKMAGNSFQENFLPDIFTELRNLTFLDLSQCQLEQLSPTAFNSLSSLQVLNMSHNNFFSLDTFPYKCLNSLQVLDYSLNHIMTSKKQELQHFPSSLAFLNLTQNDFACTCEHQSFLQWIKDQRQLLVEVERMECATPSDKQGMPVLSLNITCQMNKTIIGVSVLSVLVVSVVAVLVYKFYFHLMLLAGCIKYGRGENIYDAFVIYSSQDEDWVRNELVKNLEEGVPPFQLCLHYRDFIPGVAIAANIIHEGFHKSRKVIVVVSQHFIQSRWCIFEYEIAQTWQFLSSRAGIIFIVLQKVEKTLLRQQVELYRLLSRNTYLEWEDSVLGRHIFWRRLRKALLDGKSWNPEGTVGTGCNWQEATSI
T1 sequence (Q9Y6Y9 17-160 limits assumed): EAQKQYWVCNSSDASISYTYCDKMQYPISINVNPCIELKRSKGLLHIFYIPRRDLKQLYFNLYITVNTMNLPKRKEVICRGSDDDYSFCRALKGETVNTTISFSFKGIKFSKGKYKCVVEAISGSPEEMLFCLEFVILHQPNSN
Protocol: To identify the most successful ASLA candidates to be tested for efficacy in vivo, we will stimulate both human and mouse cell cultures with increasing concentrations (0.01 ng/ml, 0.1 ng/ml, 1 ng/ml, 10 ng/ml, 100 ng/ml) of novel lipid A preparations for 4 and 24 hours. All in vitro assays will be run in biological triplicate to increase the scientific rigor of experiments. Activation of inflammatory pathways will be investigated by stimulating THP-1 cells (ATTC), a human monocytic cell line, followed by multiplex analysis of cytokines in the supernatant minimally including TNF-α, IL-8, and IL-6. We will also screen ASLA molecules using THP-1 Dual (Invitrogen) and HEK293 cells transfected with human or mouse MD2/TLR4 (Invitrogen), which have an easily detectable SEAP transcript under the NF-kB promoter to quickly evaluate the potential for these ASLA molecules to inhibit MyD88-NF-kB activation. To account for authentication of key biological resources, all cell lines were purchased from and verified by either ATCC or Invitrogen within the past year and cells used in experiments have been passaged less than 15 times since purchase. Together, these assays will illustrate a lack of inflammatory activation when cells are stimulated with the ASLA molecules. […]

[3] = molecular target: T1, TLR4; assay: Competitive inhibition of pro-inflammatory LPS in THP-1 Dual reporter cells; conditions: Se LPS plus ASLA 470
Protocol: THP-1 Dual cells (Invitrogen) contain an easily detected secreted alkaline phosphatase (SEAP) under the NFκB promoter. E. coli LPS (circles), ALSA 468 (squares), and E. coli LPS+a constant 10 ng/mL ASLA 468 (triangles) are cultured with THP-1 Dual over a 5-log dilution series, activation of NFκB, as measured by SEAP expression, is pictured.
To investigate the inflammatory properties of BECC synthesized molecules ASLA 468 and 470, THP-1 Dual cells (Invitrogen) were used to screen for NF-κB activation.
Experimental Setup: Reporter cell line THP-1 Duals (Invitrogen) are incubated for 18 hours over a five-log dose range with either Salmonella enterica (Se) LPS alone, BECC molecule alone (467@26, 468@26, 468@37, 469@26, 470@26, 470@37), or increasing doses of Se with a constant dose of BECC molecule (10 ng/mL). THP-1 Dual cells have a SEAP reporter under the NFκB promoter that is easily quantified in the supernatant of cultured cells. After 18 hours of culture supernatant is removed from the cell culture and SEAP is quantified to indicate the level of NFκB activation/inflammation. OD@620 nm can be directly extrapolated to represent relative amounts of NFκB activation. […] Mean±SD of duplicate samples is graphed for each data point.

Compound | survival rate ([1]; 10 mg/kg given 4 hours after 25 mg/kg Ec LPS) | survival rate ([1]; 10 mg/kg given simultaneously with 25 mg/kg Ec LPS) | pathogenic symptoms ([1]; mice injected with ASLA 468 alone) | survival ([1]; treated 8 hours post-induction) | survival ([1]; treated 12 hours post-induction) | EC50 [2] | fold increase of the EC50 of Se LPS [3] | agonist category (full, partial, or weak agonist) for NF-κB activation ([2]; five-log dilution series, compared to Ec LPS positive control)
CCCCCC/C=C\CCCCCCCC(=O)OC(CCCCCCCCCCC)CC(=O)NC1[C@H](OCC2OC(OP(=O)(O)O)C(NC(=O)CC(O)CCCCCCCCCCC)[C@@H](OC(=O)CC(O)CCCCCCCCCCC)[C@@H]2O)OC(CO)C(O)[C@@H]1OC(=O)CC(CCCCCCCCCCC)OC(=O)CCCCCCCCCCC (some centres unmarked) [ASLA 468] | 66.6% | 100% | no signs of pathogenic symptoms | 100% | 66.6% | 69.5 nM | – | –
CCCCCC/C=C\CCCCCCCC(=O)OC(CCCCCCCCCCC)CC(=O)NC1[C@H](OCC2OC(OP(=O)(O)O)C(NC(=O)CC(CCCCCCCCCCC)OC(=O)CCCCCCCCCCCCCCC)[C@@H](OC(=O)CC(O)CCCCCCCCCCC)[C@@H]2O)OC(CO)C(O)[C@@H]1OC(=O)CC(CCCCCCCCCCC)OC(=O)CCCCCCCCCCC (some centres unmarked) [ASLA 470] | – | – | – | – | – | – | 1.9 fold | weak agonists
